Measurements reported in paper PMC12291762 (Antioxidants, 2025).

Experiments:
[1] = tested on: COX-1 and COX-2; details: cited from earlier work
[2] = tested on: systemic oxidative stress parameters; test: Systemic redox state (plasma, erythrocyte lysate) 24 h after carrageenan; type: in vivo, Wistar albino rats
Experimental: (§1) Following 24 h of carrageenan-induced paw edema inflammation model and intraperitoneal anesthesia induced by ketamine/xylazine (100/10 mg/kg of BW), the animals were sacrificed, while whole-blood samples and edema-affected paw tissues were isolated. After centrifugation of whole blood, plasma and erythrocyte lysate samples were separated for further examination of the applied compounds’ effects on the systemic redox balance state. Pro-oxidative markers including superoxide anion radical (O2∙^−), hydrogen peroxide (H2O2) nitrites (NO2^−), and index of lipid peroxidation measured as thiobarbituric acid (TBA) reactive substances (TBARS) were determined from plasma samples, while the antioxidant capacity, including superoxide dismutase (SOD) and catalase (CAT) activity, as well as the reduced glutathione (GSH) level were examined in erythrocyte lysate samples [46]. […] Edema-affected paw tissue samples were weighed (100 mg) and homogenized (OmniPrep™ multi-sample homogenizer, Omni International, Kennesaw, GA, USA) in 900 µL phosphate buffer on ice (pH = 7.4), and centrifuged at 12,000 rpm for 20 min. These supernatant samples were used for the determination of the aforementioned pro-oxidative and antioxidative parameters levels. All oxidative stress analyses were performed spectrophotometrically using a Shimadzu UV 1800 spectrophotometer (Kyoto, Japan).
(§2) Determination of the O2∙^− level was conducted by adding 950 µL of a Nitro Blue Tetrazolium (NBT) mixture with TRIS buffer in 50 µL of sample, measured at the 550 nm wavelength. The level of H2O2 was determined during the oxidation of phenol red by H2O2, which was catalyzed with horseradish peroxidase and measured at the 610 nm wavelength. Indirect measurement of nitrites was performed by the precipitation of samples with 30% sulfo-salicylic acid, followed by vortexing and centrifugation at 3000 rpm for 15 min. The equal volumes of isolated supernatant and Griess’ reagent (containing 1% sulfanilamide in 5% phosphoric acid/0.1% naphthalene ethylenediamine-dihydrochloride) were incubated for 10 min and measured at the 550 nm wavelength. The TBARS concentration was determined by adding 400 µL of sample to 200 µL of TBA in 0.05 M NaOH, followed by 15 min incubation at 100 °C. Measurement was performed at the 530 nm wavelength.
(§3) The epinephrine method was used for SOD determination. By adding 100 µL of sample, the same volume of epinephrine, and 1000 µL of carbonate buffer, the measurement was performed at the 470 nm wavelength. The determination of CAT activity was based on the preparation of a mixture containing 100 µL of sample, 50 µL of catalase buffer, and 1000 µL of 10 mM H2O2, which was measured at the 230 nm wavelength.

[3] = tested on: local oxidative stress parameters; test: Local redox state (edema-affected paw tissue homogenate) 24 h after carrageenan; type: in vivo, Wistar albino rats; details: inflamed paw tissue
Experimental: as §1, §2, §3

[4] = biological target: T1, COX-1 (Ovis aries, UniProt P05979); test: Fluorometric COX-1 inhibitor screening kit; type: biochemical; set-up: purchased Abcam ab204698; details: mean ± standard error, three independent measurements
T1 sequence (P05979 25-600): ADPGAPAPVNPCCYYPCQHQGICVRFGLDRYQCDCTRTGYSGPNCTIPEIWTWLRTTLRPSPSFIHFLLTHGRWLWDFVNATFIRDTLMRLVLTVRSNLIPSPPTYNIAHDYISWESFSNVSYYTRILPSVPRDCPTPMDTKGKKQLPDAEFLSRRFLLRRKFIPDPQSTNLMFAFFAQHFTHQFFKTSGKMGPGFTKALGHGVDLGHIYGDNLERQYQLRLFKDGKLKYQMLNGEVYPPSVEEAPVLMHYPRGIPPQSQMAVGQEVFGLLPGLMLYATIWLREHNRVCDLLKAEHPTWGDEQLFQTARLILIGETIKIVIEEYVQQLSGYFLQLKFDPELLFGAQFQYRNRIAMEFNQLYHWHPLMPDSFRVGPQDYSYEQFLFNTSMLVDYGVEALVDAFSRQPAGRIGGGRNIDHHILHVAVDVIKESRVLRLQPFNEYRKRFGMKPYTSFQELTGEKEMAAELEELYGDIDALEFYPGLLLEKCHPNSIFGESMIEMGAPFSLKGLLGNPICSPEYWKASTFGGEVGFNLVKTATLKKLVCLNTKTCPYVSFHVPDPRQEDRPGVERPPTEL
Experimental: The inhibitory activity of the tested compounds against COX-1 and COX-2 isoforms was assessed using fluorometric cyclooxygenase inhibitor screening kits (Catalog Numbers ab204698 and ab283401, respectively; Abcam, Cambridge, UK). These assays detect the formation of prostaglandin G2, a product of COX enzymatic activity, via fluorometric measurement.
Stock solutions of the test compounds were prepared at a concentration of 5 mM in DMSO and subsequently diluted with the same solvent to obtain the test solutions. For the assay preparation, 2 μL of each test solution was diluted with 8 μL of COX assay buffer. The solvent control (SC) consisted of 2 μL of DMSO and 8 μL of assay buffer, while the enzyme control (EC) contained 10 μL of assay buffer alone. Sample wells (S) received 10 μL of the diluted test solutions. All other steps were in accordance with the manufacturer’s protocol and the previously published article. […] The percentage of inhibition was calculated as follows:(3) % Relative Inhibition=Slope of EC−Slope of S/Slope of EC×100
Fluorescence measurements were conducted on a BioTek Synergy LX multi-mode reader (Winooski, VT, USA).

In the case of `C[C@@H](C(=O)O)c1cccc(C(=O)c2ccccc2)c1` [(R)-ketoprofen], the “Times lower COX inhibitory capacity than dexketoprofen” value [1] is given as 100 to 1000 times.
In the case of `C[C@H](C(=O)O)c1cccc(C(=O)c2ccccc2)c1` [Dexketoprofen, reference compound], the “Systemic CAT activity compared to Sol (untreated) rats” value ([2]; erythrocyte lysate) is reported as “significantly reduced activity of SOD and CAT, as well as the GSH level, in untreated rats compared to Dex”, the “Systemic GSH level compared to untreated rats” value ([2]; erythrocyte lysate) is reported as “significantly reduced activity of SOD and CAT, as well as the GSH level, in untreated rats compared to Dex” and the “Systemic SOD activity compared to Sol (untreated) rats” value ([2]; erythrocyte lysate) is reported as “significantly reduced activity of SOD and CAT, as well as the GSH level, in untreated rats compared to Dex”. For the same compound, the “Systemic H2O2 level compared to solvent rats” value ([2]; plasma) was “significantly lower”, the “Systemic O2∙− level compared to untreated (Sol) rats” value ([2]; plasma) was “significantly lower” and the “Systemic TBARS level compared to Sol (untreated) rats” value ([2]; plasma) was “significantly decreased”. For the same compound, the “Local O2∙− concentration compared to untreated rats” value [3] was “significantly decreased”, the “Local SOD activity compared to untreated (negative control) rats” value [3] was “remarkably improved” and the “Local nitrites level (reduction, p < 0.05)” value ([3]; comparator not given) was “markedly reduced”. It also gave an IC50 [4] of 1.5 ± 0.6 nM.
